“Also recorded” adds a separate entry of the source. Like-named read-outs stand apart in the source and are kept apart here.
What was measured:
MOR = conditions: cited from earlier work; for Ki: read-out: Ki, affinity binding to the MOR
DOR = conditions: cited from earlier work; for Ki: read-out: Ki, affinity binding to the DOR
[1] = target: T1, human kappa opioid receptor (Homo sapiens, UniProt P41145); format: cell-based
T1 construct: FLAG; expressed in transfected cells

[2] = target: T2, human mu opioid receptor (MOR1) (Homo sapiens, UniProt P35372); format: cell-based
T2 construct: FLAG; expressed in transfected cells

KOR = conditions: cited from earlier work; for Ki: read-out: Ki, affinity binding to the KOR
[3] = target: T1, human kappa opioid receptor; format: cell-based; remark: listed apart in the source
[4] = target: T1, human kappa opioid receptor; format: cell-based; conditions: read-out: IC50, single phase inhibition of BRL-52537 DMR
[5] = target: T2, human mu opioid receptor (MOR1); format: cell-based; conditions: HEK-MOR; ligand 10 μM, 1 hr; DAMGO 10 μM
[6] = read-out: EC50, first phase of biphasic DMR dose response
[7] = read-out: EC50, second phase of biphasic DMR dose response

T2 sequence (P35372 whole entry): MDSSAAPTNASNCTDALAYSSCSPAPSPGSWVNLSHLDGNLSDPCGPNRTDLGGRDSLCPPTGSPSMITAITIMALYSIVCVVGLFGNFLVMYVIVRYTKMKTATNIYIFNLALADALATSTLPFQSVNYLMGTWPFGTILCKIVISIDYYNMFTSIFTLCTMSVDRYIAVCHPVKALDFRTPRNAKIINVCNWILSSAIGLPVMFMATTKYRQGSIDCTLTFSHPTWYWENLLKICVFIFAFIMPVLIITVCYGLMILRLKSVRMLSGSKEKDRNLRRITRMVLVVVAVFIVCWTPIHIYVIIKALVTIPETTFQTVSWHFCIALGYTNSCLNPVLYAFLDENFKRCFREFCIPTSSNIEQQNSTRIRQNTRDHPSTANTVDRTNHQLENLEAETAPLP
T1 sequence (P41145 whole entry): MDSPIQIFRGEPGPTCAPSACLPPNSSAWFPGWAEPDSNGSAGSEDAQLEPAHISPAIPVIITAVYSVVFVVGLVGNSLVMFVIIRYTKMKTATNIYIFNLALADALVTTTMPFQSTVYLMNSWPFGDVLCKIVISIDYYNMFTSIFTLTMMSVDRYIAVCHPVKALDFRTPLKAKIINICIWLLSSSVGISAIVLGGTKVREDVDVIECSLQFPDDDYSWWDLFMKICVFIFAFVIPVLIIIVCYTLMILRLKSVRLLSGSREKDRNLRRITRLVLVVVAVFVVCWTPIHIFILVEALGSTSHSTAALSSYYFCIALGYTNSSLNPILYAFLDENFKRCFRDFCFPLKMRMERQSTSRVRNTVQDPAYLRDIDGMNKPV

For `COc1ccc2c3c1O[C@H]1[C@@H](O)C=C[C@H]4[C@@H](C2)NCC[C@@]341` [(−)-Norcodeine], the Ki (MOR) is listed as 267 nM.
For `O=C1/C(=C/c2ccccc2)C[C@@]2(O)[C@H]3Cc4ccc(O)c5c4[C@@]2(CCN3CC2CC2)[C@H]1O5` [BNTX], the Ki (DOR) is listed as 0.66 nM, the Ki (MOR) is listed as 18 nM and the “DMR agonist activity classification, KOR” value [1] is listed as “off-target”. For the same compound, the “DMR agonist activity classification, MOR” value [2] was “off-target” and the Ki (KOR) was 55 nM.
For `O=C(Cc1ccc(Cl)c(Cl)c1)N1CCCCC1CN1CCCC1` (stereo not drawn) [BRL-52537], the Ki (MOR) is listed as 1560 nM, the “ligand DMR in PTX-pretreated cells” value [3] is listed as “detectable P-DMR” and the IC50 [4] is listed as 4.1 ± 0.23 nM. The “DMR agonist activity classification, KOR” value [1] was “Full agonist”, the “DMR response at 9 min poststimulation” value [1] was 213±21 pm and the “saturable DMR amplitude, first phase of biphasic dose response” value (“saturable DMR amplitude, first phase” for short) [1] was 120±6 pm. For the same compound, the “saturable DMR amplitude, second phase of biphasic dose response” value (“saturable DMR amplitude, second phase” for short) [1] was 207±13 pm, the EC50 [1, 6] was 0.0356 ± 0.0031 nM and the EC50 [1, 7] was 26 ± 1.9 nM. The Ki (KOR) was 0.24 nM.
With `C[C@@H](NC(=O)[C@@H](N)Cc1ccc(O)cc1)C(=O)NCC(=O)N(C)[C@@H](Cc1ccccc1)C(=O)NCCO` [DAMGO] the “saturable DMR amplitude, first phase” value [1] was 139±6 pm, the “saturable DMR amplitude, second phase” value [1] was 200±8 pm and the “DMR agonist activity classification, MOR” value [2] was “Full agonist”. For the same compound, the “DMR response at 9 min poststimulation” value [2] was 240±17 pm and the Ki (KOR) was > 20000 nM.
For `CN(C(=O)Cc1ccc(Cl)c(Cl)c1)[C@H](CN1CCCC1)c1cccc(N=C=S)c1` [DIPPA], the IC50 (DOR; read-out: IC50, affinity binding to the DOR) is given as > 1000 nM, the IC50 (MOR; read-out: IC50, affinity binding to the MOR) is given as 1800 nM and the “ligand DMR in PTX-pretreated cells” value [3] is given as “detectable P-DMR”. The IC50 [4] was 455 ± 32.3 nM, the “DMR agonist activity classification, KOR” value [1] was “Full agonist” and the “saturable DMR amplitude, first phase” value [1] was 138±8 pm. For the same compound, the “saturable DMR amplitude, second phase” value [1] was 205±9 pm, the EC50 [1, 6] was 13.4 ± 1.5 nM and the EC50 [1, 7] was 240 ± 11.2 nM. For the same compound, the IC50 (KOR; read-out: IC50, affinity binding to the KOR) was 2.21 nM.
In the case of `CC1(C)SSC(C)(C)[C@@H](NC(=O)[C@@H](N)Cc2ccc(O)cc2)C(=O)NCC(=O)N[C@@H](Cc2ccccc2)C(=O)N[C@H]1C(=O)O` [DPDPE], the Ki (MOR) is given as 600 nM and the Ki (KOR) is given as 12000 nM.
In the case of `NC(=O)[C@H](Cc1ccccc1)NC(=O)[C@H](Cc1c[nH]c2ccccc12)NC(=O)[C@@H]1CCCN1C(=O)[C@@H](N)Cc1ccc(O)cc1` [Endomorphin-1], the Ki (DOR) is given as > 500 nM.
For `NC(=O)[C@H](Cc1ccccc1)NC(=O)[C@H](Cc1ccccc1)NC(=O)[C@@H]1CCCN1C(=O)[C@@H](N)Cc1ccc(O)cc1` [Endomorphin-2], the Ki (DOR) is given as > 500 nM and the Ki (MOR) is given as 0.43 nM.
In the case of `COC(=O)N1CCN(C(=O)Cc2ccc(Cl)c(Cl)c2)C(CN2CCCC2)C1` (stereo not drawn) [GR 89696], the “ligand DMR in PTX-pretreated cells” value [3] is given as “detectable P-DMR”, the “DMR agonist activity classification, KOR” value [1] is given as “Full agonist” and the Ki (KOR) is given as 41.7 nM.
For `CN(C(=O)Cc1ccc(Cl)c(Cl)c1)C(CN1CCCC1)c1cccc(OCC(=O)O)c1` (stereo not drawn) [ICI 204,448], the Ki (DOR) is given as > 1000 nM, the Ki (MOR) is given as > 1000 nM and the Ki (KOR) is given as 2.69 nM.
In the case of `C=CCN1CC[C@]23CCCC[C@H]2[C@H]1Cc1ccc(O)cc13` [Levallorphan], the Ki (DOR) is given as 1 nM, the Ki (MOR) is given as 1.7 nM and the Ki (KOR) is given as 0.3 nM.
In the case of `Oc1ccc2c3c1O[C@H]1c4c(c5ccccc5n4Cc4ccccc4)C[C@@]4(O)[C@@H](C2)N(CC2CC2)CC[C@]314` [N-Benzylnaltrindole], the “IC50 ratio at the DOR” value (DOR) is listed as 459, the “IC50 ratio at the MOR” value (MOR) is listed as 11.2 and the “blockage of the DAMGO response” value [5] is listed as “partial blockage”. For the same compound, the “IC50 ratio at the KOR” value (KOR) was 1.3.
For `C=CC[N+]1(C)CC[C@]23c4c5ccc(O)c4O[C@H]2C(=O)CC[C@@]3(O)[C@H]1C5` (stereo partly drawn) [Naloxone methiodide], the Ki (DOR) is given as 204 nM, the Ki (MOR) is given as 28.9 nM and the “blockage of the DAMGO response” value [5] is given as “partial blockage”. The Ki (KOR) was 1010 nM.
In the case of `Oc1ccc2c3c1O[C@H]1c4oc5ccccc5c4C[C@@]4(O)[C@@H](C2)N(CC2CC2)CC[C@]314` [Naltriben], the Ki (DOR) is listed as 0.4 nM, the Ki (MOR) is listed as 80.8 nM and the “blockage of the DAMGO response” value [5] is listed as “partial blockage”. The Ki (KOR) was > 10000 nM.
In the case of `Oc1ccc2c3c1O[C@H]1c4[nH]c5ccccc5c4C[C@@]4(O)[C@@H](C2)N(CC2CC2)CC[C@]314` [Naltrindole], the “blockage of the DAMGO response” value [5] is reported as “partial blockage”.
In the case of `Oc1ccc2c3c1O[C@H]1c4[nH]c5c(c4C[C@@]4(O)[C@@H](C2)N(CC2CC2)CC[C@]314)C[C@@]1(O)[C@H]2Cc3ccc(O)c4c3[C@@]1(CCN2CC1CC1)[C@H]5O4` [Nor-Binaltorphimine], the “blockage of the DAMGO response” value [5] is reported as “partial blockage” and the “DMR under all eight assay conditions” value [3] is reported as “absence of any DMR; also recorded: did not trigger any DMR response under any conditions”.
In the case of `C=CCN1CCC2(C)c3cc(O)ccc3CC1C2C` (stereo not drawn) [SKF10047], the Ki (DOR) is listed as 19000 nM, the Ki (MOR) is listed as 1900 nM and the Ki (KOR) is listed as 1600 nM.
For `COC(=O)[C@@H]1C[C@H](OC(C)=O)C(=O)[C@H]2[C@@]1(C)CC[C@H]1C(=O)O[C@H](c3ccoc3)C[C@]21C` [Salvinorin A], the EC50 (MOR; read-out: EC50 at the MOR) is listed as […], the “ligand DMR in PTX-pretreated cells” value [3] is listed as “detectable P-DMR” and the “DMR agonist activity classification, KOR” value [1] is listed as “Full agonist”. For the same compound, the EC50 (KOR; read-out: EC50 at the KOR) was […].
In the case of `COC(=O)/C=C/C(=O)N[C@@H]1CC[C@@]2(O)[C@H]3Cc4ccc(O)c5c4[C@@]2(CCN3CC2CC2)[C@H]1O5` [β-Funaltrexamine], the Ki (DOR) is listed as 48 nM, the Ki (MOR) is listed as 0.33 nM and the Ki (KOR) is listed as 2.8 nM.
In the case of (Met5)-Enkephalin, the Ki (DOR) is listed as 2 nM, the Ki (MOR) is listed as 3 nM and the Ki (KOR) is listed as 2.9 nM.
For DADLE, the Ki (DOR) is given as 0.63 nM, the Ki (MOR) is given as 150 nM and the Ki (KOR) is given as 1900 nM.
In the case of DSLET, the Ki (MOR) is given as 120 nM and the “DMR agonist activity classification, MOR” value [2] is given as “Full agonist”.
For DTLET, the Ki (DOR) is given as 22 nM, the “DMR agonist activity classification, MOR” value [2] is given as “Full agonist” and the Ki (KOR) is given as > 10000 nM.
In the case of Deltorphin II, the Ki (DOR) is listed as 3.3 nM, the Ki (MOR) is listed as > 1000 nM and the Ki (KOR) is listed as > 1000 nM.
For “Dynorphin A (1–8) (YGGFLRRI; Dynorphin A(1-8); UniProt P01213 207-214, looked up, fragment) [Kappa agonist]”, the Ki (DOR) is listed as 32.6 nM, the Ki (MOR) is listed as 22.3 nM and the “DMR agonist activity classification, MOR” value [2] is listed as “Full agonist”.
For Dynorphin A (1–13), the Ki (DOR) is given as > 1000 nM, the Ki (MOR) is given as 31 nM and the Ki (KOR) is given as 0.98 nM.
In the case of Dynorphin A (2–13), the Ki (KOR) is listed as 680 nM.
In the case of Dynorphin B, the Ki (DOR) is given as 12.8 nM.
For Nociceptin, the Ki (DOR) is given as > 1000 nM, the Ki (MOR) is given as 270 nM and the Ki (KOR) is given as > 1000 nM.
For “α-Neoendorphin (YGGFLRKYPK; Alpha-neoendorphin; UniProt P01213 175-184, looked up)”, the Ki (DOR) is listed as 1.17 nM, the “ligand DMR in PTX-pretreated cells” value [3] is listed as “detectable P-DMR” and the “DMR agonist activity classification, KOR” value [1] is listed as “Full agonist”. The Ki (KOR) was 1.4 nM.

— article PMC3602246 (BMC Pharmacology & Toxicology, 2013)
